From ChEMBL document CHEMBL1201862, “PubChem BioAssay data set” (2004)
One block for each compound: values may come before it. The source made the active and inactive calls.

Legend:
[1] = target: T1, Runt-related transcription factor 1/Core-binding factor subunit beta (Homo sapiens, UniProt Q01196+Q13951); test: Runt domain/CBFb-SMMHC interaction disruptors – biochemical, TR-FRET (AID 1438); format: protein assay
H9c2 = test: cells; format: functional, cell-based; details: Rattus norvegicus, H9c2, Myocardium;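 note: confirmatory concentration-response retest of ultra-high-throughput screening hits for modulation of myocardial damage; cell death induced by hydrogen peroxide oxidative stress; compound pretreatment for 60 min then peroxide exposure for 2 h; potency is for protecting the cells against peroxide damage rather than for killing them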
[2] = target: T1, Runt-related transcription factor 1/Core-binding factor subunit beta; test: disruptors of Runt domain/CBFb-SMMHC interaction – biochemical, FRET, Cerulean-Runt, Venus-CBFb-SMMHC, uHTS, […] (AID 1434); format: protein assay
[3] = target: G-protein coupled receptor 55 (Homo sapiens, UniProt Q9Y2T6); test: selective activators of receptor GPR55 – imaging, U2OS cells, beta-arrestin-GFP redistribution, primary screen (AID 1961); format: functional
Sequence of G-protein coupled receptor 55 (Q9Y2T6 whole entry): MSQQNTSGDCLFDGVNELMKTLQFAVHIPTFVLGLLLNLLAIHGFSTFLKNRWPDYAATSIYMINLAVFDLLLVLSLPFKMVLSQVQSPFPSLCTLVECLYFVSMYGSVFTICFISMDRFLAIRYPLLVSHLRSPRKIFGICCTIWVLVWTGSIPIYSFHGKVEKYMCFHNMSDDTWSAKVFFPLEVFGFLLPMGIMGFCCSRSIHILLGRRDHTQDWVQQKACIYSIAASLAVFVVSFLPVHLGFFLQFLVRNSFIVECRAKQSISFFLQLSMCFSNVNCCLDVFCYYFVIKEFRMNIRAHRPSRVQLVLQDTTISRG

[4] = Trypanosoma cruzi growth suppression in host cells – NIH3T3 host cells, beta-gal luminescence, confirmation (AID 2044); format: functional, cell-based;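 note: intracellular parasites grown in NIH/3T3 mouse fibroblasts as host cells; luminescent beta-galactosidase reporter signal from transgenic T. cruzi replicating inside host cells; inhibitors lower the luminescence signal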
[5] = target: T2, Heat shock factor protein 1 (Mus musculus, UniProt P38532); test: decrease of HSF1-responsive luciferase luminescence – cell-based, NIH3T3, dose retest, confirmation (AID 2382); format: functional;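 note: NIH3T3 fibroblasts with HSF1-driven luciferase reporter stressed by proteasome inhibitor MG132; luminescence from HSF1-driven luciferase expression after 8 hours of MG132 stress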
T2 sequence (P38532 whole entry): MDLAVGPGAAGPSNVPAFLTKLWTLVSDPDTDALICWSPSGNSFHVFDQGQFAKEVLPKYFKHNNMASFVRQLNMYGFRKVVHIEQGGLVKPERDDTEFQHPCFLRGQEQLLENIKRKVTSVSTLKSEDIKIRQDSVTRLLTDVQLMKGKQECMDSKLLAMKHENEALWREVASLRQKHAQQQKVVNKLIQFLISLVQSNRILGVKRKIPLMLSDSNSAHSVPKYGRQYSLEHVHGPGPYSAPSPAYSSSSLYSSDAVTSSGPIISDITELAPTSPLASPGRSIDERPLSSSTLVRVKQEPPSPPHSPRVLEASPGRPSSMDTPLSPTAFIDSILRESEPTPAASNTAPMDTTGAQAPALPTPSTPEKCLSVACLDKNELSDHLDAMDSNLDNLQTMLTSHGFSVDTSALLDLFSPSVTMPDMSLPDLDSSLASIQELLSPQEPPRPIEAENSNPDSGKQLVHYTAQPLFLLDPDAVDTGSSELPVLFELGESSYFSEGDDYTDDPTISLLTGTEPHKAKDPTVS

[6] = target: Microphthalmia-associated transcription factor (Homo sapiens, UniProt O75030); test: reducers of TRPM1 reporter luminescence, concentration series – cell-based, SK-MEL-5, cherry-picked, set 3, MITF inhibitor project, dose response (AID 493073); format: functional;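 note: SK-MEL-5 melanoma cells with luciferase driven by the MITF target TRPM1 promoter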
Sequence of Microphthalmia-associated transcription factor (O75030 whole entry): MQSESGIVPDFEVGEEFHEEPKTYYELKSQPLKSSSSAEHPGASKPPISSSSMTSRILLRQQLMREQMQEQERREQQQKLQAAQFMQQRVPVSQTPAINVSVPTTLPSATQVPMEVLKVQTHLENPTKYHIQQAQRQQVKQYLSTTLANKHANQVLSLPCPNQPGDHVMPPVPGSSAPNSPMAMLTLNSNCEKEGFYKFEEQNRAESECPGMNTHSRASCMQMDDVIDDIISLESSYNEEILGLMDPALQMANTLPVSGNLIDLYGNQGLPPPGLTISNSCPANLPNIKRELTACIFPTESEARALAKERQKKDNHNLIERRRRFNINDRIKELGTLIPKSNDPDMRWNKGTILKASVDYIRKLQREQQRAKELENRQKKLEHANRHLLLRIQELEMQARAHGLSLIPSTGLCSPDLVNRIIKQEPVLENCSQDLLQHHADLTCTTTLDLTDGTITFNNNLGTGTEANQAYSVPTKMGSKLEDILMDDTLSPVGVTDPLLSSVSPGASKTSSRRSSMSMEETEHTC

[7] = NIH3T3 cell viability loss – ATP luminescence, mouse fibroblasts, counter-screen, dose response (AID 2010); format: functional, cell-based;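 note: cells exposed to compound for about 90 hours before reading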
[8] = target: T3, Polyadenylate-binding protein 1 (Homo sapiens, UniProt P11940); test: MLLE domain peptide-binding blockers, IC50 – biochemical, fluorescence polarization, FITC-PAM2 peptide, dose response (AID 602259); format: functional; details: read-out: IC50_Mean
T3 sequence (P11940 whole entry, the tested form may be a part): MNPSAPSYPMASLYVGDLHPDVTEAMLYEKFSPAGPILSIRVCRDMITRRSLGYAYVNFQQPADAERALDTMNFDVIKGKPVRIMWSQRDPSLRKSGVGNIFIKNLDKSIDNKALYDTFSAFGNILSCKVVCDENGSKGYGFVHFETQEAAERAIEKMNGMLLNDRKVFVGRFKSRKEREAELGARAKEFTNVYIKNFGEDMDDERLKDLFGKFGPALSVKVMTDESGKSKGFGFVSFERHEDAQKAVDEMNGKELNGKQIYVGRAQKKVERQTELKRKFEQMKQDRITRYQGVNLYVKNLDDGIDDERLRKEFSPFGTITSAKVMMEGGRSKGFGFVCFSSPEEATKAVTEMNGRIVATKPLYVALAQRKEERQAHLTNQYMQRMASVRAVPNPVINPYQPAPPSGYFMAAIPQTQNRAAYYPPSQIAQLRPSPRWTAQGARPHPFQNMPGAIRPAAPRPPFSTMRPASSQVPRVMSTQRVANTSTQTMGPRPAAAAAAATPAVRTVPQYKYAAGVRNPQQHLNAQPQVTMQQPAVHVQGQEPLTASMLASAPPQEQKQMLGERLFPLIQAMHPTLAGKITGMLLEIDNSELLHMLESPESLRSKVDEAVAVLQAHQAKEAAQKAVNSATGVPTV

[9] = target: T3, Polyadenylate-binding protein 1; test: MLLE binding blockers, Cy5 peptide tracer – biochemical, fluorescence polarization, Cy5-PAM2 peptide, secondary, miRNA deadenylation inhibitor project, dose response (AID 602260); format: functional; details: read-out: IC50_Mean
[10] = target: E3 ubiquitin-protein ligase Mdm2 (Homo sapiens, UniProt Q00987); test: MDM2-luc reporter signal enhancers, multi-concentration potency testing, MDM2 ubiquitin-protein ligase inhibitor program, whole-cell format, luminescence detection, 384-well microplate (AID 1394); format: functional;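 note: MDM2 E3 inhibitors raise luminescence so EC50 is for signal enhancement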
Sequence of E3 ubiquitin-protein ligase Mdm2 (Q00987 whole entry): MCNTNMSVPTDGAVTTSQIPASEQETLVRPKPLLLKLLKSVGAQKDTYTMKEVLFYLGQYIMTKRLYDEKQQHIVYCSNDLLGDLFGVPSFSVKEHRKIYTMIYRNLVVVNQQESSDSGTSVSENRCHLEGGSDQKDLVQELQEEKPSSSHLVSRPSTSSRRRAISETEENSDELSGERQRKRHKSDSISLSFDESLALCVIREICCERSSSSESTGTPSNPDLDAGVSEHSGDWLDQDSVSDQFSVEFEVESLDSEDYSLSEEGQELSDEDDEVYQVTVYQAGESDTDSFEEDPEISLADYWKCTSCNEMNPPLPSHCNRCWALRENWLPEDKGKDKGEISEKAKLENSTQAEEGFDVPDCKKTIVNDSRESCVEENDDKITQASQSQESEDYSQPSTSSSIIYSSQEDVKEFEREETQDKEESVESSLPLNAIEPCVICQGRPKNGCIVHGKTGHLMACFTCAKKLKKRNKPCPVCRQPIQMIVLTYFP

[11] = target: T2, Heat shock factor protein 1; test: enhancement of HSF1-driven luciferase signal – cell-based, NIH3T3, luminescence, dose retest, confirmation (AID 435004); format: functional;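 note: stress induced by proteasome inhibitor MG132 added 30 min after compound; luciferase reporter driven by HSF1 response element in NIH3T3 cells; actives raise luminescence as potentiators of the MG132 stress response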
Coagulation factor XII = Coagulation factor XII (Homo sapiens, UniProt P00748); format: functional;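 note: activated factor XIIa alpha cleaving a fluorogenic AMC peptide substrate; inhibitor potency from loss of enzyme activity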
Sequence of Coagulation factor XII (P00748 20-372 limits assumed): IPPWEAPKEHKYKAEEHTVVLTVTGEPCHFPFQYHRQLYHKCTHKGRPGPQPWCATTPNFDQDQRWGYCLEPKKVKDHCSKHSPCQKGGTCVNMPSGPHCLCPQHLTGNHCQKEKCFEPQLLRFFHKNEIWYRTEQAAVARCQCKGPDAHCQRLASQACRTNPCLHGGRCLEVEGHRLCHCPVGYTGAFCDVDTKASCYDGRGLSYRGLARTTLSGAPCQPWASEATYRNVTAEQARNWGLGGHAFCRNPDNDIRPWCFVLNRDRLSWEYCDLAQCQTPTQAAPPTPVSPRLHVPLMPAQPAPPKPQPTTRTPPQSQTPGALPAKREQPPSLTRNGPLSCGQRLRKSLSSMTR
Sequence of Coagulation factor XII (P00748 373-615 limits assumed): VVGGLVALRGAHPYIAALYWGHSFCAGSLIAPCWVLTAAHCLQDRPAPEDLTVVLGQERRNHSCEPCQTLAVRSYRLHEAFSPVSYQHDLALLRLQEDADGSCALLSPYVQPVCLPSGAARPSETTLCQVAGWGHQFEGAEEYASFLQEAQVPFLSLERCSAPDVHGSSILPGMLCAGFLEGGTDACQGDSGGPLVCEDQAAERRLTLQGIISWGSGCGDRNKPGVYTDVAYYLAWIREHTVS

[12] = HEK-293T viability loss after treatment – luminescence, T-cell screen hits, cytotoxicity control for TCR NF-kB inhibitor project, dose response (AID 489026); format: functional, cell-based;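 note: cells exposed to compound about 14 hours before the viability readout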

T1 sequence (Q01196 whole entry, the tested form may be a part): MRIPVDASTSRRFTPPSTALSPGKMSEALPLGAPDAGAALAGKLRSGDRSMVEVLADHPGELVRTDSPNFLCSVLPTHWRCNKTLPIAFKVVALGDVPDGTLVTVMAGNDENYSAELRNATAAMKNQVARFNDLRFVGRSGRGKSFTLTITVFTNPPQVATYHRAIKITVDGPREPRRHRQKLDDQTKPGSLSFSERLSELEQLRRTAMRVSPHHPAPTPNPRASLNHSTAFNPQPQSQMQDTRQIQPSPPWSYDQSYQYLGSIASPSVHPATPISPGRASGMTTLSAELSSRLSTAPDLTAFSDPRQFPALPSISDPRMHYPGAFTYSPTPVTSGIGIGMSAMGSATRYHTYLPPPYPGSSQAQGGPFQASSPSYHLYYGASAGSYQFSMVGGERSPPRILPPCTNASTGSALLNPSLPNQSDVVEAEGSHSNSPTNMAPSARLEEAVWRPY
T1 sequence (Q13951 whole entry, the tested form may be a part): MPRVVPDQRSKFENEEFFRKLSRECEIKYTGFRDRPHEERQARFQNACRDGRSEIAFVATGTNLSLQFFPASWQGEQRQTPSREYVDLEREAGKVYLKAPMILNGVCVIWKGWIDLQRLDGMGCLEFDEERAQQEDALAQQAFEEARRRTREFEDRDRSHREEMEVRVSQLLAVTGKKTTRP

Structure (SMILES): CC(C)c1cc(N2CCN(C(=O)c3ccco3)CC2)n2c(nc3ccccc32)c1C#N
- IC50 [1]: > 100 µM (inactive)
- IC50 (H9c2): 15.5 µM (active)
- IC50 [2]: > 100 µM (inactive)

Structure (SMILES): COc1ccc(C(=O)/C=C/C(=O)N(CC(=O)NC2CCCCC2)Cc2ccc(F)cc2)c(O)c1
- EC50 [3]: > 32 µM (inactive)
- EC50 [4]: 1.61 µM (active)
- EC50 [5]: 5.29 µM (active)
- AC50 [6]: 5.45 µM (active)
- EC50 [7]: > 60 µM (not active)

- IC50 [8]: > 66 µM (inactive)
- IC50 [9]: > 66 µM (inactive)
- AC50 [6]: 5.37 µM (active)
- EC50 [10]: 1 µM (active)
- EC50 [11]: 14.7 µM (active)
Structure (SMILES): Cc1cc(C)nc(S/C=C/C(=O)c2ccccc2F)n1

- IC50 (Coagulation factor XII): > 50 µM (inactive)
Structure (SMILES): CC1(C)CC(=O)C=C(NNC(=O)c2ccccc2O)C1

Structure (SMILES): Nc1nc(-c2ccccc2)cc(N2CCCCC2)n1
- IC50 [12]: > 80 µM (inactive)
